We go through six compounds from patent EP0737689A1, “NOVEL 6-SUBSTITUTED OXA- OR […]” (TEIKOKU HORMONE MFG. CO., LTD., priority 1993, dated 1995).

Test [1] has as its target T1, aromatase (Homo sapiens, UniProt P11511).
T1 construct: Human placental microsomes (ones subjected to centrifugation at 105,000 X g for 60 minutes) were prepared according to the method of Ryan; from tissue; host or cells: human placenta (microsomal fraction)
T1 sequence (P11511 1-503): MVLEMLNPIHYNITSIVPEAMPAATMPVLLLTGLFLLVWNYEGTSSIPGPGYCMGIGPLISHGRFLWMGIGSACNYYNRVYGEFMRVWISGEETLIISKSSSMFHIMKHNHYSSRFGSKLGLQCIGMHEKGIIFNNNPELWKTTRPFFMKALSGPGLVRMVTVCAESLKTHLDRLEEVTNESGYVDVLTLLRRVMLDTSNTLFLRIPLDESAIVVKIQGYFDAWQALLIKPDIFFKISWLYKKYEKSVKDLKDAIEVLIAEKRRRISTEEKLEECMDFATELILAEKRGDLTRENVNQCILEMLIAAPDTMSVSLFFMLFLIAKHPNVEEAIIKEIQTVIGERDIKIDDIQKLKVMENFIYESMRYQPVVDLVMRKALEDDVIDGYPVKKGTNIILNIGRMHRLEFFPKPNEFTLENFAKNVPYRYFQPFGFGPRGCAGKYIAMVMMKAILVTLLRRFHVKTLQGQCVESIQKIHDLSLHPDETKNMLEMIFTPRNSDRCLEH
As to the kind of experiment: Assay of aromatase inhibition action (in vitro), 3H2O release from [1β-3H]androstenedione. As to conditions: freeze dried human placental microsomes, 2 µM [1β-3H]androstenedione, 180 µM NADPH, pH 7.5, 37°C, 20 minutes. It is filed as biochemical. As for the experimental part: Human placental microsomes (ones subjected to centrifugation at 105,000 X g for 60 minutes) were prepared according to the method of Ryan (The Journal of Biological Chemistry 234, 268-272, 1959). The microsomes were washed twice with 0.5 mM dithiothreitol solution, freeze dried, and stored at -20°C until use.
An aromatase inhibition action was assayed according to the method developed by Tompson and Siiteri (The Journal of Biological Chemistry 249, 5373-5378, 1974). Namely, the method comprises quantitatively determining ^3H2O released when [1β-^3H]androstenedione is aromatized. The experiment, when the enzyme was used, was conducted in 67 mM phosphate buffer (pH 7.5) so that the amount of the final incubation solution could be 0.5 ml. The incubation solution contains 180 µM of NADPH, 2 µM of [1β-^3H]androstenedione, 150 µg of freeze dried human placental microsomes, 25 µl of methanol and a test compound at various concentrations. Incubation was conducted in the air at 37°C for 20 minutes, 3 ml of chloroform was added to discontinue the reaction, and then the mixture was stirred for 40 seconds. The mixture was then centrifuged at 700 X g for 10 minutes, 0.3 ml of the aqueous solution was sampled from the supernatant, the scintillation mixture was added, and the amount of ^3H2O formed was measured.

Test [2] deals with T2, aromatase (Rattus norvegicus, UniProt P22443).
T2 construct: mature female rats after one week from hypophysectomy were used; from tissue; host or cells: whole animal (hypophysectomised mature female rats)
T2 sequence (P22443 1-508): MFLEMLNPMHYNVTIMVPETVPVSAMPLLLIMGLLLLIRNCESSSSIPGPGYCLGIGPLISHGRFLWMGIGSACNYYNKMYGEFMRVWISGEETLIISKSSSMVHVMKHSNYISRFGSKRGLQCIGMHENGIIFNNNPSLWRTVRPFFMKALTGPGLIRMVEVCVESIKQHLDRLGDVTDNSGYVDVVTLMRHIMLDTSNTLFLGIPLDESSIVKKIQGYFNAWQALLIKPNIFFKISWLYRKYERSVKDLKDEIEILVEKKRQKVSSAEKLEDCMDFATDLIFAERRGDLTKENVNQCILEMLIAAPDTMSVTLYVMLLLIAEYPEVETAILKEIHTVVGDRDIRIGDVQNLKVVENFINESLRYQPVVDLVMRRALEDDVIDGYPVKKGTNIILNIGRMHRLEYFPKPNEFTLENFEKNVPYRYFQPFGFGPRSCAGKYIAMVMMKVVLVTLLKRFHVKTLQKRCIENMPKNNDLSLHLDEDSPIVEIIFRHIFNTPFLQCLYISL
As to the kind of experiment: Assay of aromatase inhibition action (in vivo), inhibition of DHEAS-induced cornification of the vaginal smear. The conditions noted are these: orally once a day for 4 days, hypophysectomized mature female rats, 16 mg/kg DHEAS, cornification relative to solvent administration group. Here is the method:
An aromatase inhibition action was assayed according to the method developed by G.H.Deckers and A.H.W.M.Schuurs (Journal of Steroid Biochemistry 32, 625-631, 1989).
Namely, mature female rats after one week from hypophysectomy were used with one group of 8 to 10 animals. Either 16 mg/kg of dehydroepiandrosterone sulfate (DHEAS) and 5 ml/kg of a solvent (physiological saline containing 2 % polysorbate 80), or DHEAS and a test compound suspended in the solvent were orally administered once a day for successive 4 days. For 6 days from the next day of start of the administration, the vaginal smear was sampled, and observed under a microscope after being stained with Giemsa staining solution. Cornification of the vaginal smear due to DHEAS was observed from 3 days after the initial administration, and its action disappeared 6 days thereafter. Therefore, the cornification smear number was expressed as the total of from the third day to the fifth day from the start of administration. An cornification inhibition action by the test compound was expressed as a rate to cornification in the solvent administration group.
Since cornification of the vaginal smear is caused by estrogens biosynthetically produced from DHEAS by aromatase, inhibition of the cornification is observed when aromatase is inhibited.

As usually defined, the IC50 is the concentration that inhibits the measured activity by half. Read a low IC50 as higher potency. Take `CS[C@@H]1C[C@H]2[C@@H]3CCOC[C@@]3(C)CC[C@@H]2[C@@]2(C)C=CC(=O)C=C12` [Example 10, 6β-(methylthio)-D-homo-17-oxaandrosta-1,4-dien-3-one]: in test [1], the concentration for half-maximal inhibition (IC50) turned out to be 800 nM.

Consider `C[C@]12C=CC(=O)C=C1[C@@H](SC#N)C[C@@H]1[C@@H]2CC[C@]2(C)C(=O)OCC[C@@H]12` [Example 13 (6α), 6α-thiocyanato-D-homo-17-oxaandrosta-1,4-diene-3,17a-dione], for which, in test [2] (dose 5 mg/kg/day), the “Inhibition rate (%)” value was 81.3%. Regarding `CC(=O)S[C@H]1C[C@@H]2[C@H](CC[C@]3(C)C(=O)OCC[C@@H]23)[C@@]2(C)C=CC(=O)C=C12` [Example 15, 6α-(acetylthio)-D-homo-17-oxaandrosta-1,4-diene-3,17a-dione], 1600 nM corresponded to half-maximal inhibition in test [1] (IC50). Also, the “Inhibition rate (%)” value in test [2] (dose 2 mg/kg/day) turned out to be 90.9%.

For the compound `C[C@]12CC[C@H]3[C@@H](C[C@H](N=[N+]=[N-])C4=CC(=O)C=C[C@@]43C)[C@@H]1CCOC2` [Example 17, 6α-azido-D-homo-17-oxaandrosta-1,4-dien-3-one], in test [2] (dose 5 mg/kg/day), the “Inhibition rate (%)” value was 100%. With `CC(=O)S[C@H]1C[C@H]2[C@@H]3CCOC[C@@]3(C)CC[C@@H]2[C@@]2(C)C=CC(=O)C=C12` [Example 19, 6α-(acetylthio)-D-homo-17-oxaandrosta-1,4-dien-3-one], in test [2] (dose 5 mg/kg/day), the “Inhibition rate (%)” value worked out at 72.3%.

For `CO[C@@H]1C[C@@H]2[C@H](CC[C@]3(C)C(=O)OCC[C@@H]23)[C@@]2(C)C=CC(=O)C=C12` [Example 31, 6β-methoxy-D-homo-17-oxaandrosta-1,4-diene-3,17a-dione], the “Inhibition rate (%)” value in test [2] (dose 5 mg/kg/day) is reported as 100%.
